# Patent US7276531B2, “G-lactam derivatives as prostaglandin agonists” (Applied Research Systems ARS Holding N.V., priority 2003, dated 2007)
# Legend:
# [1] = test system: mature mouse ovulation induction model; assay: In vivo ovulation assay (mature mouse ovulation induction model)
# Procedure: Ovulation induction activity of compounds of the invention was tested in a mature mouse ovulation induction model.
# Mature 10-week-old CD-mice were used. Reagents were prepared as follows: PMSG (pregnant mare serum gonadotropin) (Calbiochem, cat #367222) and hCG (Serono) are diluted in PBS. PGE2 (Cayman, Ann Arbor Mich.) was dissolved in ethanol and diluted with 0.154 M […] Buffer (pH 8.0) to final concentration of ethanol of less than 3 percent. A compound of the invention (based on solubility) was pre-dissolved in ethanol, DMSO or other reagents. The compound of the invention was then diluted with saline or other diluents such as PBS or NP3S (5% N-methyl-pyrrolidinone/30% PEG400/25% PEG200/20% Propylene Glycol in saline). PMSG stimulates ovarian follicular development. After PMSG stimulation, the mature follicules can be stimulated to rupture and release oocytes by an ovulation trigger, such as hCG or a compound of the invention.
# The following test protocol is employed for the test animals (typically 5 animals per test group). • Day 1: Inject 5 IU PMSG in 200 μl PBS (i.p. 15:00 PM) • Day 2: No administration • Day 3: Injection of ovulation trigger hCG (i.p.) or hCG replacement (PGE2 or compound of the invention, s.c., i.v. or oral route), 15:00 PM • Day 4: Eighteen hours after injections of the ovulation triggers, animals were sacrificed by CO2 asphyxiation and abdominal cavities were opened using fine scissors and forceps. Uterus, oviducts and ovaries were collected and placed in pre-labeled dishes containing phosphate buffered saline (PBS). The collected tissues were transferred to the laboratory and intact oviduct carefully dissected out from uterus and ovary under the dissection microscope. The dissected oviducts were placed on the glass microscopic slide and covered with another slide. Two slides were taped on two edges. The numbers of ovulated ova in the oviducts were counted using upright microscope with 4× objective and recorded. […]
# [2] = test system: LPS-induced TNFα release; assay: In vivo inhibition of LPS-induced TNFα release in mice; conditions: LPS 0.3 mg/kg i.p.
# Procedure: The anti-inflammatory activity of compounds of the invention may be assessed after a LPS challenge using the following protocol:
# Eight weeks old C3H/H mice (IFFA-CREDO, L'arbresle, France) receive an oral treatment with compounds of the invention 6 different doses (0.001, 0.01, 0.1, 1 or 3 and 10 mg/kg in 0.5% CMC/0.25% tween-20). Six mice are used by group. Fifteen minutes later, endotoxins (O111:B4 Sigma, 0.3 mg/kg) are intraperitoneally injected. Heparinized whole blood is collected by decapitation. TNFα level is determined in plasma by ELISA (R & D Systems, Abdingdon, UK). Control animals receive 0.5% CMC/0.25% tween-20 (10 ml/kg) as vehicle. Data obtained from experiments are expressed as the mean±SEM and analysed using one-way analysis of variance (ANOVA) followed by Dunnett's t-test.
smiles,measurement,setting,value
"CCCC/C(C)=C/C=C\[C@H]1CCC(=O)N1CCc1ccc(C(=O)O)cc1 [Example 3, 4-(2-{(2R)-2-[(1Z,3E)-4-methylocta-1,3-dienyl]-5-oxopyrrolidin-1-yl}ethyl)benzoic acid]",ED50,"[1]; Mus musculus, po, read-out: calculated ED50 (dose of drug which produces 50% of its effect), ovulation, p.o. administration route, mice",1 mg/kg
same,number of ova released (average),"[1]; oral administration, 20 mg/kg, mature mice",20
same,% of Inhibition of TNF Release Mean ± SEM,[2]; oral dose 0.001 mg/kg,41 ± 5%
same,% of Inhibition of TNF Release Mean ± SEM,[2]; oral dose 0.01 mg/kg,43 ± 7%
same,% of Inhibition of TNF Release Mean ± SEM,[2]; oral dose 0.1 mg/kg,63 ± 3%
same,% of Inhibition of TNF Release Mean ± SEM,[2]; oral dose 1 mg/kg,68 ± 3%
same,% of Inhibition of TNF Release Mean ± SEM,[2]; oral dose 10 mg/kg,83 ± 3%
